SMILES strings stand for the structures.

The experiment has as its system Noctuidae. In words: Sticky board trap comparison of attractant blends beside cotton crops. Format: in vivo. The text has this:
Comparisons of a range of attractant blends were made using sticky board traps adjacent to cotton crops on the Darling Downs region of Queensland, Australia. This experimental set up allowed comparison of attractants in the presence of the crop volatiles without confusing factors such as the effect of non-volatile feeding stimulants.
A series of rectangular boards 1.2 metres high×1.5 metres wide were placed approximately 1 metre outside the edge of a cotton field at spacings of 50 metres. The boards were suspended at a height of 1 metre above the ground using star posts. Four 100 mm diameter round holes were made in the centre of the boards and cotton wicks containing experimental attractant mixes were suspended in these holes using a paper clip. The boards were coated on both sides with 500 to 700 grams of polybutene sticker so insects attracted to the experimental volatiles would become trapped on the boards. Impregnated wicks were placed in the traps mid afternoon and traps were checked after 48 hours.

As for `O=CCc1ccccc1` [PAA, Phenylacetaldehyde], the “Mean (Moths/board)” value (Table 3, total of all Noctuidae, 3.12 mg of each ingredient per sticky board, traps checked after 48 hours) came to 1.00 Moths/board. For the same compound, the “Comparison of moth catch in words” value (Table 3 experiment, sticky traps) is reported as “not significantly attractive”.

The values above are taken from patent US20050147640A1, “Noctuid attractant composition” (priority 2002, published 2005).
